Values quoted from earlier work as cited in patent US20210069064A1, “A MANUFACTURING METHOD OF AN HERBAL MEDICINAL TABLET FORMULATION FOR TREATING OBESITY WHICH CAN BE […] ON SASANG CONS[…]” (NUBEBE CO., LTD., priority 2017, published 2021).

Settings: taken for 20 weeks or more

CN[C@@H](C)[C@H](O)c1ccccc1 [ephedrine]
weight and body fat change compared to the control group: weight and body fat loss
